The results in this text go back to patent publication US9827246B2, “Biomarkers of response to NAE inhibitors” (Millennium Pharmaceuticals, Inc., priority 2011, dated 2017).

Type in all cases: cell-based
For assay [1], the system named is p21 in TP53−/− HCT-116 cells. Kind of assay: Western blots of p21. For orientation: In western blotting, separated proteins are transferred to a membrane and probed.
A further assay has as its system SW 1463. Put plainly: Panel 1 cell viability screen. The note with it: SW1463; FBXW7 mutant. As to the method: (§1) To support clinical development and identify potential biomarkers of tumor sensitivity or resistance, two large cancer cell line panels (Panel 1, N=653 (McDermott et al. (2007) PNAS 104:19936-19941); Panel 2, N=240 (O'Day et al. (2010) Fourth AACR International Conference on Molecular Diagnostics in Cancer Therapeutic Development)) were treated with MLN4924 and cell viability data (IC50, EC50, and POC—Percentage of Control) were generated.
(§2) Panel 1 (McDermott et al., supra). The cell lines were exposed to three MLN4924 concentrations (20 nM, 200 nM, and 2 μM) for 72 hours. Viability, i.e., cell number, was quantified by measuring fluorescence of a cell-permeant nucleic acid stain. Mean of triplicate values for each sample were taken and compared to DMSO control to calculate percentage of control. In the results, control or no activity value is given a value of about 1, sensitivity is indicated by a value less than 1, with 0 as death of the entire cell population and resistance indicated by a value greater than 1. A continuum of viability values was obtained for each concentration, so some values were selected as cut-offs for final determination of sensitivity or resistance. For example, median POC values of less than the median value of all POC's recorded in the panel (<0.34) indicated sensitivity, values of 0.34 to 0.75 indicated borderline sensitivity, values greater than the 3rd quartile of all POC's in the panel (>0.75) insensitivity or resistance. […] Final judgment of cell line as sensitive, insensitive or resistant was determined by its viability at 2 μM.

The test system of the next assay is MDA-MB-231. Kind of assay: Panel 1 cell viability screen. The following applies: NF2 mutant. As to the method: as §1, §2
The test system of another assay is MKN45. Put plainly: Panel 1 cell viability screen. The note with it: SMAD4 mutant. As to the method: as §1, §2
A further assay concerns RCM-1. Put plainly: Panel 1 cell viability screen. The note with it: FBXW7 mutant. The procedure: as §1, §2
A further assay concerns BxPC-3. Kind of assay: Panel 1 cell viability screen. The note with it: SMAD4 mutant. The procedure: as §1, §2
Another assay deals with COLO-678. Kind of assay: Panel 1 cell viability screen. The following applies: SMAD4 mutant. As to the method: as §1, §2
For another assay, the system named is UMC-11. Put plainly: Panel 1 cell viability screen. The following applies: SMAD4 mutant. The procedure: as §1, §2
A further assay relates to CFPAC-1. Kind of assay: Panel 1 cell viability screen. The note with it: SMAD4 mutant. The procedure: as §1, §2
The next assay concerns PANC-08-13. Put plainly: Panel 1 cell viability screen. The note with it: SMAD4 mutant. The procedure: as §1, §2
A further assay has as its system CAPAN-1. Kind of assay: Panel 1 cell viability screen. The note with it: SMAD4 mutant. The procedure: as §1, §2
Another assay concerns AsPC-1. Kind of assay: Panel 1 cell viability screen. The note with it: FBXW7 mutant. The procedure: as §1, §2
A further assay relates to S-117. Kind of assay: Panel 1 cell viability screen. The note with it: NF2 mutant. The procedure: as §1, §2
In another assay the test system is COCM1. Kind of assay: Panel 1 cell viability screen. The note with it: CoCM-1; SMAD4 mutant. The procedure:
as §1, §2

For the next assay, the system named is MKN1. Kind of assay: Panel 1 cell viability screen. The following applies: FBXW7 mutant. As to the method:
as §1, §2

In another assay the test system is HT29. Put plainly: Panel 1 cell viability screen. The note with it: HT-29; SMAD4 mutant. As to the method: as §1, §2
A further assay has as its system SW620. Kind of assay: Panel 1 cell viability screen. The following applies: SMAD4 mutant. The procedure: as §1, §2
Another assay has as its system SW 1116. Put plainly: Panel 2 high-content cell screen. The following applies: Homo sapiens, 72 h, cell number. As to the method:
as §1
(§3) Panel 2 (Ricerca Biosciences, Inc., Bothell, Wash.). MLN4924 was added in half-log dilutions for 10 concentrations and treated for 72 hours. High-content cell screening by fluorescence microscopy included image analysis to generate several types of data. Results included EC50 values (after measurement of cell numbers, the EC50 concentration was calculated from the inflection point of a curve of percent of control (POC) against log of MLN4924 concentration), IC50 values (from the POC-log MLN4924 plot, IC50 is the concentration at 50% maximal possible response), apoptosis (measurement of activation of caspase 3 plotted against log of MLN4924 concentration, determined as the concentration for >5 fold induction), and mitotic activity (determined by measuring the fold increase of phospho-histone 3). A comparison of EC50 to IC50 (FIG. 3) allowed assignment of cell lines to sensitive, insensitive or resistant. Final identification of a cell line as sensitive or resistant was based on the EC50 values. The cutoff for sensitivity is a median EC50 of less than the median value of all POC's recorded in the panel (<0.36), borderline sensitivity was associated with median EC50 of 0.36 to 1.67 and insensitive or resistant cell lines were identified by EC50 greater than the 3rd quartile of all POC's in the panel (>1.67).

The next assay concerns SK-OV-3. Kind of assay: Panel 2 high-content cell screen. The following applies: Homo sapiens, 72 h, cell number. As to the method: as §1, §3
For the next assay, the system named is NCI-H520. Kind of assay: Panel 2 high-content cell screen. The note with it: Homo sapiens, 72 h, cell number. The procedure:
as §1, §3

pEC50: −log10 of the molar value. A value given as a limit tells only on which side of the number the result lay.

One may read the pEC50 as the negative decadic logarithm of the EC50, by convention in mol/L. A low value points to a large EC50. `NS(=O)(=O)OC[C@@H]1C[C@@H](n2ccc3c(N[C@H]4CCc5ccccc54)ncnc32)C[C@@H]1O` [MLN4924, ((1S,2S,4R)-4-{4-[(1S)-2,3-dihydro-1H-inden-1-ylamino]-7H-pyrrolo[2,3-d]pyrimidin-7-yl}-2-hydroxycyclopentyl)methyl sulphamate]: in [1], the “p21 (Western blots)” value is listed as “still up-regulated”. Besides, the Phenotype result is listed as “resistant” in the assay on SW 1463; “insensitive” in the assay on MDA-MB-231; “insensitive” in the assay with MKN45; “resistant” with RCM-1; “insensitive” in the assay with BxPC-3; “resistant” in the assay on COLO-678. The Phenotype entry in the assay with UMC-11 is “insensitive”; in the assay on CFPAC-1, “sensitive?”; with PANC-08-13, “resistant”; with CAPAN-1, “sensitive?”; with AsPC-1 it was “resistant”; in the assay on S-117, “resistant”. The Phenotype entry with COCM1 was “resistant”; with MKN1, “insensitive”; with HT29, “insensitive”; with SW620, “insensitive”. Also, the pEC50 is not above 5.00 in the assay with SW 1116, not above 5.00 in the assay on SK-OV-3 and 6.58 in the assay with NCI-H520.
